Each structure is given as a SMILES string.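 Assay format: 96-well plates, 48-hour exposure. The concentration for 50% growth inhibition is given as GI50. TGI: concentration producing complete growth inhibition.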

What all share (test): NCI anticancer screen, dose series, 48 h
The subject of assay [1] is COLO 205 colon.
Assay [2] deals with HCT-116 colon.
For assay [3], the system named is HOP-62 NSCLC.
Assay [4] concerns IGROV1 ovarian.
The test system of assay [5] is NCI-H226 lung.
For assay [6], the system named is RXF 393 renal.
Assay [7] concerns SN12C renal.
The test system of assay [8] is SNB-19 CNS.
Assay [9] deals with SW-620 colon.
The test system of assay [10] is UACC-62 melanoma.

Regarding `CCN(CC)CC(C)Nc1ccc([N+](=O)[O-])c2sc3ccccc3c(=O)c12` (stereo not drawn), the GI50 in [1] was 0.941 µM; in assay [2], 1.41 µM; in [3], 2.28 µM; in assay [4], 1.08 µM; in [5] it was 1.09 µM; in assay [6] it was 1.65 µM. In addition, the GI50 in [7] was 1.93 µM; in assay [8], 2.07 µM; in [9], 1.25 µM; in assay [10], 1.09 µM. Also, the TGI in [1] came out at 3.35 µM; in [2], 4.49 µM; in assay [3] it was 12.3 µM; in [4], 4.18 µM; in [5] it was 3.72 µM; in [6], 5.71 µM. For the same compound, the TGI in [7] is 23.5 µM; in assay [8], 32.7 µM; in assay [9], 4.13 µM; in [10], 2.52 µM.

As to `C[C@]12CC[C@@H]3c4ccc(OP(=O)(O)O)cc4CC[C@H]3[C@@H]1CCC2=O`, the TGI in [1], in assay [2], in assay [3], in assay [4], in assay [6] and in [7] was more than 100 µM each time. Also, the TGI in assay [8], in assay [9] and in [10] was more than 100 µM in each case.

As to `CC[C@H]1C=CCC[C@@]2(C[C@@H]3CC[C@@H]4[C@H](C(=O)OCCCCCCCCCCCCCCCC(=O)O)[C@]5(CCC[C@@H](C)O5)NC(=[N+]34)N2)O1`, the TGI in assay [1] came out at 1.34 µM; in assay [2] it was 2.16 µM; in [3], 3.6 µM; in assay [4], 8.93 µM; in [5], 3.69 µM; in assay [6] it was 1.9 µM. Also, the TGI in assay [7] stood at 7.93 µM; in [8] it was 9.46 µM; in assay [9] it was 6.37 µM; in assay [10], 0.179 µM.

In the case of `O=S(=O)(O)c1ccc2cccc(N=Nc3c(O)ccc4ccccc34)c2c1`, the TGI in [1], in assay [2], in assay [3], in [4], in assay [5] and in [6] was more than 100 µM throughout. Also, the TGI in [7], in assay [8], in assay [9] and in assay [10] was more than 100 µM each time.

Take `CC1SC(c2ccccc2)N(CCc2cccs2)C1=O` (stereo not drawn): the GI50 in assay [1] was 3.2 µM; in assay [2], 2.99 µM; in assay [3], 11 µM; in assay [4], 4.72 µM; in assay [5] it was 6.15 µM; in [6] it was 6.76 µM. For the same compound, the GI50 is 5.43 µM in assay [7], 5.06 µM in assay [8], 4.6 µM in assay [9] and 3.42 µM in assay [10]. Besides, the TGI in assay [1] was determined as 10.8 µM; in assay [2], 12.3 µM; in assay [3] it was 25.9 µM; in assay [4] it was 74.4 µM; in assay [5] it was 26.4 µM; in assay [6], 20.4 µM. For the same compound, the TGI in [7] came to 20.1 µM; in assay [8], 19.9 µM; in [9], 18.3 µM; in [10], 18.8 µM.

Take `COC(=O)C1=CC2CCCC1(O)C(C(C)=O)C2` (stereo not drawn): the TGI in [1] was more than 100 µM; in assay [2], more than 100 µM; in [3] it was more than 100 µM; in assay [4], 32.9 µM; in [5], more than 100 µM; in assay [6], more than 100 µM. Further, the TGI in assay [7], in assay [8], in assay [9] and in assay [10] was more than 100 µM in each case.

Take `CCS(=O)(=O)Nc1ccc(Nc2c3ccccc3nc3ccccc23)c(OC)c1`: the TGI in assay [1] was 7.28 µM; in assay [2] it was 6.94 µM; in assay [3], 1.21 µM; in assay [4] it was 22.4 µM; in assay [5], 3.19 µM; in [6], 9.6 µM. Besides, the TGI worked out at 3.86 µM in [7], 6.41 µM in [8], 7.13 µM in assay [9] and 4.02 µM in [10].

For the compound `COc1ccc2nc(-n3c(/C=C/c4ccccc4O)nc4ccccc4c3=O)sc2c1`, the TGI in assay [1] was more than 100 µM; in assay [2], 65.3 µM; in [3], more than 100 µM; in [4], more than 100 µM; in assay [5], more than 100 µM; in [6], more than 100 µM. For the same compound, the TGI in assay [8], in [9] and in assay [10] was more than 100 µM each time.

Turning to `CCSCCC(N)C(=O)O` (stereo not drawn), the TGI in assay [1], in assay [2], in assay [3], in assay [4], in [5] and in assay [6] was more than 100 µM each time. In addition, the TGI in assay [7], in assay [8], in assay [9] and in assay [10] was more than 100 µM in each case.

Regarding `O=C(N/N=C(/c1ccccc1)C(F)(F)F)c1ccncc1`, the TGI in [1], in assay [2], in assay [3], in assay [4], in assay [5] and in [6] was more than 100 µM each time. The TGI in assay [7], in assay [8] and in assay [10] was more than 100 µM in each case.

Take `COc1ccc(/C=C2\C(=O)N(C3OC(COC(C)=O)C(OC(C)=O)C(OC(C)=O)C3OC(C)=O)c3ccccc3N=C2N)cc1` (stereo not drawn): the TGI in [1] is 34 µM; in [2], 49.7 µM; in assay [3], more than 100 µM; in assay [4], more than 100 µM; in assay [6], 62.2 µM; in [7] it was more than 100 µM. Moreover, the TGI was more than 100 µM in assay [8], more than 100 µM in [9] and 45.8 µM in assay [10].

For `ONc1ncnc2nc[nH]c12`, the TGI in assay [1], in assay [2], in [3], in assay [4], in assay [5] and in assay [8] was more than 100 µM in each case. The TGI in [9] and in assay [10] was more than 100 µM in each case.

On to `CCOC(=O)C1(C(=O)OCC)Nc2cccnc2N(C)N1`, for which the TGI in [1] was 24.2 µM; in assay [2], 73.9 µM; in assay [3], more than 100 µM; in [4] it was 42.1 µM; in assay [5], 35.3 µM; in assay [6], 33.3 µM. For the same compound, the TGI was 36 µM in assay [7], more than 100 µM in [8], 69 µM in assay [9] and 35.2 µM in assay [10].

`CCOC(=O)CSc1nc(N)c2c(-c3ccc(OC)c(OC)c3)c3c(nc2n1)CCCC3`: the TGI in assay [1], in [2], in [3], in assay [4], in assay [6] and in [7] was more than 100 µM in each case. The TGI in assay [8], in assay [9] and in assay [10] was more than 100 µM each time.

With `CCC1C(C#N)=C(N)OC2=C1C(=O)CC(C)(C)C2` (stereo not drawn), the TGI in assay [1], in assay [2], in assay [3], in [4], in assay [7] and in assay [8] was more than 100 µM in each case. Moreover, the TGI in [9] and in assay [10] was more than 100 µM in each case.

Take `CCOC(=O)c1nc2ccc(Cl)cc2c2c1Cc1ccccc1-2`: the TGI in [1], in [2], in [3], in assay [4], in assay [5] and in assay [6] was more than 100 µM in each case. Further, the TGI in [7], in assay [8], in assay [9] and in assay [10] was more than 100 µM throughout.

On to `COc1ccc2nc(N/N=C/C(C)=N/Nc3cc(C)c4cc(OC)ccc4n3)cc(C)c2c1`, for which the TGI was 57.9 µM in assay [1]; 28.6 µM in assay [2]; 50.5 µM in assay [3]; 47.1 µM in [4]; 53.3 µM in [5]; more than 83.1 µM in [6]. Moreover, the TGI in assay [7] is 51.4 µM; in assay [8] it was 55.8 µM; in assay [9], 43.5 µM; in assay [10], 64.6 µM.

For `N=c1c2c(C(N)=O)cn(C3OC(CO)C(O)C3O)c2ncn1O` (stereo not drawn), the TGI in assay [1] was 1.23 µM; in assay [2] it was 0.596 µM; in assay [3] it was 0.873 µM; in [4] it was more than 100 µM; in [5] it was 1.57 µM; in assay [6], 3.71 µM. Moreover, the TGI is 0.444 µM in [7], more than 100 µM in assay [8], 0.497 µM in assay [9] and 0.283 µM in assay [10].

Take `N=C(N)c1ccc(-c2ccc(-c3cc(Cl)cc(Cl)c3)o2)nc1`: the GI50 is 2.01 µM in [1]; 2.09 µM in assay [4]; 2.13 µM in assay [5]; 1.62 µM in [7]; 1.63 µM in assay [8]; 1.78 µM in assay [9]. Further, the GI50 in [10] was 1.78 µM. Besides, the TGI in assay [1] amounted to 3.78 µM; in assay [4], 3.79 µM; in assay [5] it was 5.19 µM; in assay [7] it was 3.16 µM; in assay [8] it was 3.1 µM; in assay [9] it was 3.41 µM. In assay [10], this compound registered a TGI of 3.36 µM.

On to `COc1ccc(/C(=C2/O[C@@H]([C@H]3COC(C)(C)O3)[C@H]3OC(C)(C)O[C@@H]23)c2cc(OC)c(OC)c(OC)c2)cc1O`, for which the GI50 was 27.3 µM in assay [1]; 10.9 µM in assay [3]; 45.1 µM in assay [4]; 64.7 µM in assay [5]; 2.35 µM in assay [6]; 8.9 µM in assay [7]. Besides, the GI50 in [8] was 5.33 µM; in assay [9] it was 7.28 µM; in assay [10] it was 22.9 µM. The TGI in [1] was 63.7 µM; in assay [3] it was 34.7 µM; in assay [4], more than 100 µM; in assay [5] it was more than 100 µM; in assay [6] it was 5.07 µM; in assay [7], more than 100 µM. For the same compound, the TGI was more than 100 µM in [8], more than 100 µM in [9] and 57.6 µM in assay [10].

Take `COc1ccc2nc(-c3ccc(-c4noc(-c5cc(OC)c(OC)c(OC)c5)n4)cc3)[nH]c2c1`: the GI50 in [2] is 1.9 µM; in [3] it was 4.44 µM; in [4], 26.3 µM; in assay [5], 22.7 µM; in assay [6] it was 5.24 µM; in assay [7] it was 13.2 µM. The GI50 in [8] is 12.7 µM; in assay [9], 5.89 µM; in assay [10] it was 14 µM. Further, the TGI in [2] is 10.7 µM; in assay [3], 16.8 µM; in [4], 69.1 µM; in assay [5] it was 81.4 µM; in assay [6] it was 19.1 µM; in [7] it was 31.3 µM. Further, the TGI in assay [8] is 36.8 µM; in assay [9], 56.5 µM; in assay [10], 33.4 µM.

For `COc1cc(/C=C/C(=O)c2ccc(NS(=O)(=O)c3cc([N+](=O)[O-])ccc3C)cc2)cc(OC)c1OC`, the TGI in assay [1] came out at 14.9 µM; in assay [2], 6.49 µM; in assay [3] it was 11.4 µM; in [4], 17.1 µM; in assay [5], 8.74 µM; in [6], 11.1 µM. For the same compound, the TGI in [7] amounted to 4.52 µM; in assay [8], 14.1 µM; in assay [9], 25.5 µM.

Consider `CN1CC[C@@]2(c3cccc(O)c3)CC(=O)/C(=C/c3ccccc3)[C@H]1C2`, for which the TGI in assay [1] turned out to be 30.3 µM; in assay [2] it was 12.5 µM; in assay [3], 58.7 µM; in assay [4] it was 36.2 µM; in assay [5], 42.5 µM; in [6], 20.5 µM. Further, the TGI stood at 19.4 µM in assay [7], 19.5 µM in assay [8] and 10.1 µM in assay [9].

As to `Cn1c(=O)c2c(nc(-n3nc(-c4ccc(Cl)cc4)cc3N)n2C)n(C)c1=O`, the TGI in assay [1] was more than 100 µM; in assay [2] it was more than 100 µM; in assay [3], 81.9 µM; in [4], more than 100 µM; in [5], more than 100 µM; in [6], more than 100 µM. The TGI in [7], in assay [8] and in [10] was more than 100 µM each time.
